Experimental data: US7449495B2, “Retinoid derivatives with antiangiogenic, antitumoral and proapoptotic activities” (Sigma-Tau Industrie Farmaceutiche Riunite S.p.A., priority 2001, dated 2008)

Assays:
[1] = tested on: multidrug-resistant human ovarian carcinoma A2780/Dx; assay: Antitumoral activity in human ovarian carcinoma model A2780/Dx; type: in vivo, CD1 nu/nu mice; conditions: qdx5x3w
Procedure: The human ovarian carcinoma cells A2780, A2780/Dx and NCIH460 were maintained in RPMI-1640 containing 10% FCS, 2 mM glutamine, 50 μg/ml gentamicin, at 37° C. in a humidified atmosphere containing 5% CO2. The cells were trypsinised, collected in complete medium, centrifuged at approx. 1100 rpm for 10 minutes and the precipitate resuspended in Hank's 199 Medium; this operation was carried out twice. The cells were resuspended in Hank's 199 Medium at a density of 20×10^6/ml and 0.1 ml (equal to 2×10^6 cells/mouse) were injected s.c. into the right flank of CD1 nu/nu 6 week-old, female mice.
The ST1926 solution was prepared immediately before use and solubilised in cremophor:ethanol 1:1 and subsequently diluted 1:4 in buffered saline solution. The animal treatments were administered in a volume of 10 ml/kg. The treatment protocol for ST1926 at different doses was for 5 consecutive days (qd×5), beginning one day following tumor cell inoculation and repeated for 3 cycles. Measurements of tumor dimensions were performed using a digital calliper (Vernier Caliper) twice weekly, from the time in which the mass was measurable. The tumor mass was evaluated from the size of the two principal dimensions (length and breadth), expressed in mm, applying the formula (length×breadth^2)/2, that is, the tumor volume in mm3. For each experimental group, the percentage of tumor volume inhibition was calculated (TVI %), with respect to the control, namely (100−(T/C %). TVI was evaluated 2 days after the final administration of ST1926.
The mice were measured until the control group tumors had reached a weight of 2 g, then the mice were sacrificed by cervical dislocation.
A comparison between the TVI values obtained for each group was performed using the non parametric Mann Whitney test for non-paired data, using the Instat software from GraphPad inc.
The mice were weighed prior to each treatment, firstly, so as to be able to administer the correct quantity of substance based on the possible changes in weight observed throughout the course of administration of the drug, and also to record the maximum weight loss throughout the treatment (BWL % max).

[2] = tested on: 3LL murine Lewis lung carcinoma; assay: Antitumoral activity in murine Lewis lung carcinoma model 3LL; type: in vivo, C57BL/6J mice; conditions: 10 mg/kg po, qdx5x3w
Procedure: Murine pulmonary adenocarcinoma Madison 109 cells (M109) were maintained by s.c. passage of tumor fragments. The day of inoculation, the cell suspension was injected i.m. in the rear left limb of a 20 g male BALB/c mouse at a density of 3×10^5 cells/mouse. 3LL murine Lewis lung carcinoma was routinely maintained by i.m. passages (every 10-14 days) of 1×10^5 cells/mouse in C57BL/6J mice. For antitumor activity experiments, tumors were excised from donor mice and after mechanical desegregation and enzymatic digestion tumor cell viability was assessed by the trypan blue dye exclusion test. Then, 1×10^5 cells/100 μl/mouse were injected i.m. into the right hind leg muscle of C57BL/6J mice.
Tumor dimension measurements were performed using a digital calliper (Vernier Caliper) from the day in which the mass became measurable, twice weekly. The tumor mass was assessed from the size of the two principal dimensions (length and breadth), expressed in mm, applying the formula (length×breadth^2)/2 that is, the tumor volume in mm3. For every experimental group the percentage of inhibition of tumor volume (TVI %) was calculated, with respect to that of the control that is (100−(T/C %). TVI was evaluated 2 days after the final administration of ST1926.
The mean survival time (MST) was also measured and the increase in mean life-span expressed as ILS % (increase of life span) calculated as (MSTT/MSTC)×100−100.
The comparison between the values of TVI and of survival time, obtained for each group were performed with the non parametric Mann Whitney test for non paired data, using the Instat software from GraphPad inc. […]
The mice (8 for each group) were weighed prior to each treatment, firstly, so as to be able to administer the correct quantity of substance, based on the eventual variations in weight observed throughout the period of drug administration, and also to be able to register the maximum weight loss throughout the treatment (BWL % max).

O=C(O)/C=C/c1ccc(-c2ccc(O)c(C34CC5CC(CC(C5)C3)C4)c2)cc1 [ST1926, E-4-(3-(1-adamantyl)-4-hydroxyphenyl)cinnamic acid]
BWL % Max ([1]; 10 mg/kg po): 0%
Lethality ([1]; 10 mg/kg po): 0/8
TVI % ± SE ([1]; 10 mg/kg po): *34 ± 3%
BWL % Max ([1]; 15 mg/kg po): 6%
Lethality ([1]; 15 mg/kg po): 0/8
TVI % ± SE ([1]; 15 mg/kg po): *54 ± 9%
BWL % Max [2]: 7%
ILS % [2]: 52%
MST (range days) [2]: *32 (24-42) days
